Values joined by “and” are separate entries in the source; they are usually repeats but may differ in a detail not shown here. Equal values may be shown once.
Key:
[1] = tested on: GK rats; assay: GK rat chronic efficacy (28 days: glucose, food intake, body weight, GLP-1, GIP, PYY, insulin, glucagon); type: in vivo; details: 30 mpk; for Fasted glucose on day 28 (Fig 3B): day 28, fasted, individual animals
Procedure: At the start of the study, fed (ambient) blood glucose was measured via glucometer at 1 h post lights on, and animals were selected and sorted into treatment groups based on ambient glucose (n = 10/ GK group, n = 6 WKY control). Blood for baseline incretin measurements was collected in the PM via tail vein. Rats were dosed via oral gavage (PO) at a volume of 5 ml/kg daily at approximately 12:30 PM with either vehicle (0.5% methylcellulose), AP1 at 30 mg/kg, or AP3 at 30 mg/kg. MK-8666, a GPR40 partial agonist synthesized at Merck & Co., Inc., Kenilworth, NJ USA [13], at 30 mg/kg was administered in feed (Research Diets, New Brunswick, NJ) and provided ad lib. All compounds were administered to achieve maximal efficacious exposures determined in acute efficacy studies similar to those acute studies described above. In brief, partial agonists and AgoPAMs were titrated in the acute GK rat experiment described above and the exposure associated with maximal efficacy in glucose lowering was noted. Partial agonists and AgoPAMs were then dosed to maintain those exposures up to 24h post dose. […] Rats from this group and the WKY controls were administered vehicle PO when the vehicle, AP1, and AP3 groups were treated. Fed blood glucose, food intake, and body weights were determined on days 10, 17, 23, and 28 of study at 2 h post lights on. Immediately after these measures were taken on days 10, 17, 23, and 28, food was removed. After 5h of fasting, animals were dosed with vehicle or compound and allowed to rest for an additional hour. Glucose, GLP-1, GIP, and PYY were measured after 6h of fasting at 1 hr post dose. Fed blood glucose is described by animals having had ad libidum access to feed up till the time of sampling and occurred at 2h post-lights on where rats were nearing the end of their nocturnal feeding cycle. Fasted blood glucose is described by blood glucose sampled after 6h of fasting where food was removed at 2h post lights on. Please note that the fasted sample was taken 1h post oral dosing. On day 10, blood was collected from the tail vein (20 μl) after morning glucose measures and after 6 hour fast from a subset of n = 3 rats per treatment group to determine the fed and fasted exposure of the compounds in circulation. The blood was stored at 4°C in 0.1 M sodium citrate for subsequent analysis of drug exposure.
Blood for insulin, glucagon, GLP-1, GIP, and PYY measurements was collected into K2EDTA Microtainer tubes (BD, Franklin Lakes, NJ) pre-treated with DPP4 inhibitor (Millipore, Billerica, MA) and cOmplete™ Protease Inhibitor Cocktail Tablets (Roche Diagnostics, Indianapolis, IN). Tubes were centrifuged for 10 minutes at 5000 RPM, and plasma was aliquotted for analysis. Plasma insulin levels were measured via EIA (Mesoscale Discovery ELISA Kit, Gaithersburg MD). Rat plasma total GLP-1 was measured using Total GLP-1 (ver.2) Assay Kit (Cat#: K150JVC). The measurement of active GLP-1 was carried out in a similar manner as that described for total GLP-1 assay with the exception that MSD Active GLP-1 (ver. 2) assay kit (Cat# K150JWC) was used. Rat plasma glucagon was measured using an in-house glucagon assay developed as a MSD format sandwich immunoassay (Merck & Co., Inc., MRL, Kenilworth, NJ USA). The antibody specificity was cross validated via mass- spec using procedures described in Lee et al. Briefly, MSD Streptavidin Gold plates were coated with 2 μg/ml biotin mouse monoclonal antibody generated to glucagon. Test samples were added to the plates and a separate Sulfo- tagged monoclonal antibody was used to detect the captured glucagon protein (2 μg/ml). The ELISA was carried out in the standard reagents in the MSD format. The plate was read on the SECTOR Imager 6000 Reader. Metabolic hormones GIP (Gastric Inhibitory Polypeptide) and PYY (Peptide YY) were measured in rat plasma using the Rat Metabolic Magnetic Bead Panel (EMD Millipore, Billerica, MA). The assay was performed according to manufacturer protocol. […]

[2] = tested on: GK rats; assay: Endogenous glucose production in vivo (2H/13C dual tracer); design: species or system rat; details: GK rats, 30 mpk, individual animal values (data for Fig 8); 30 mg/kg;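 for Glucose production, EGP Total: micromoles per kg body weight per minute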;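 for Glucose production, Glycerol: absolute flux in micromoles per kg per minute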;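 for Glucose production, Glycogen: absolute flux in micromoles per kg per minute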;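 for Glucose production, TCA: absolute flux in micromoles per kg per minute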
Procedure: To evaluate the effects of the GPR40 partial and AgoPAM compounds on EGP in vivo, a 2H/13C dual tracer approach was used to calculate EGP and its contributing sources. Following the chronic treatments described above, 0.9% NaCl salinated deuterium oxide (D2O, Sigma-Aldrich, St. Louis, MO) was administered to all animals via intraperitoneal (IP) injection at dose volume of 20 ml/kg at 1 hr post lights on. Animals were then placed in clean cages and food was removed. After a 5 hour fast, blood glucose was measured and animals were dosed with 50 mg/kg [U-13C] glucose (Sigma-Aldrich, St. Louis, MO) IP at 5 ml/kg. Blood was collected via tail snip at time points from 60–150 min post treatment to measure blood glucose (via glucometer) as well as endogenous (12C-glucose) and exogenous (13C-glucose) via GCMS. Following the last tail blood collection, rats were anesthetized with isoflurane and cardiac blood was collected into K2EDTA tubes (Becton, Dickinson and Co., Franklin Lakes, NJ).
The serially collected blood samples were analyzed for 13C-glucose enrichment using GC-MS analysis. The % 13C glucose enrichments were then combined with the total glucose readings to calculate the concentration of 13C-glucose, and these values were modeled with a two-compartment model of whole body glucose metabolism to calculate the average EGP for the period from 0–150 minutes.
Terminal blood samples were analyzed for relative 2H enrichment in plasma glucose using the monoacetone glucose method. Briefly, samples were extracted with 70% perchloric acid at a ratio of 50 μl perchloric acid per 1 ml plasma and centrifuged at 25,000 rcf for 10 min at 4°C. The supernatant was collected and the pH was adjusted to 6–8 using aqueous KOH. The samples were then lyophilized overnight. To convert plasma glucose to monoacetone glucose (MAG), acetone and concentrated sulfuric acid were added to the lyophilized samples and stirred for 4 hours at room temperature. Water was then added and the pH adjusted to 2.0 with 3M Na2CO3. Samples were stirred moderately for 18 hours at room temperature, the pH was adjusted to 7 with 3M Na2CO3, and the samples were completely dried by speed vacuum concentration. The resulting MAG samples were then extracted in hot ethyl acetate, dried overnight under a stream of N2 gas, and purified using Discovery DSC-18 SPE columns (6 ml, 1 g bed weight). For the SPE protocol, MAG samples were reconstituted in 3 ml water and passed over the columns which were pre-washed with 2 ml methanol. The columns were rinsed twice with 1 ml water and the MAG was eluted with 5% acetonitrile. The acetonitrile eluent was then transferred to a glass scintillation vial and freeze dried. Purified MAG samples were solubilized in 180 μl 90% acetonitrile for 2H NMR analysis which was performed using the lock channel of a 950 MHz Bruker NMR spectrometer (David H Murdock Research Institute, DHMRI Kannapolis, NC). Acquisition parameters were as follows: 90° pulse, D1 = 1 s, 1H broadband decoupling, NS = 3600, acquisition time ~ 1 hr. The 2H NMR spectra of the MAG samples were then analyzed using Matlab (The Mathworks Inc, Natick, MA) to model the NMR peaks with a Lorentzian lineshape, and the results were used to calculate integrals for each of the seven NMR resonances in the MAG spectrum. Peaks 2, 5, and 6s were then used to calculate the relative sources of EGP (i.e. gluconeogenesis from TCA cycle substrates, glucose production from triose phosphates, and glycogenolysis) and these values were combined with the total EGP measurement to calculate absolute fluxes of glucose production.

| Structure (SMILES) | Glucose Over time (S2 File, Fig 2A) ([1]; Day 0, individual animals) | Glucose Over time (S2 File, Fig 2A) ([1]; Day 10, individual animals) | Glucose Over time (S2 File, Fig 2A) ([1]; Day 17, individual animals) | Glucose Over time (S2 File, Fig 2A) ([1]; Day 23, individual animals) | Glucose Over time (S2 File, Fig 2A) ([1]; Day 28, individual animals) | Fasted glucose on day 28 (Fig 3B) [1] | Glucose production, EGP Total [2] | Glucose production, Glycerol [2] | Glucose production, Glycogen [2] | Glucose production, TCA [2] |
| --- | --- | --- | --- | --- | --- | --- | --- | --- | --- | --- |
| COc1ccc(F)c(-c2ccc([C@@H]3CCc4ccc([C@H](C5CC5)[C@H](C)C(=O)O)cc4O3)cc2)c1 [L-254] | 162 mg/dL and 163 mg/dL and 174 mg/dL and 167 mg/dL and 198 mg/dL and 181 mg/dL and 193 mg/dL and 168 mg/dL and 160 mg/dL and 171 mg/dL | 111 mg/dl and 110 mg/dl (2×) and 123 mg/dl and 100 mg/dl and 101 mg/dl and 106 mg/dl and 92 mg/dl and 99 mg/dl and 95 mg/dl | 110 mg/dl and 118 mg/dl and 103 mg/dl (2×) and 138 mg/dl and 137 mg/dl and 96 mg/dl and 95 mg/dl and 124 mg/dl and 108 mg/dl | 115 mg/dl and 109 mg/dl and 125 mg/dl and 106 mg/dl and 126 mg/dl (2×) and 127 mg/dl and 107 mg/dl and 117 mg/dl and 130 mg/dl | 114 mg/dl and 98 mg/dl and 108 mg/dl and 105 mg/dl and 131 mg/dl and 113 mg/dl (2×) and 126 mg/dl and 121 mg/dl and 107 mg/dl | 104 and 87 and 118 and 99 and 111 and 114 and 95 and 92 | 61.3579 µmol/kg/min and 60.2311 µmol/kg/min and 73.9647 µmol/kg/min and 47.8618 µmol/kg/min and 64.0721 µmol/kg/min and 48.3077 µmol/kg/min and 46.8784 µmol/kg/min and 45.4367 µmol/kg/min and 55.8377 µmol/kg/min | 10.657 µmol/kg/min and 6.4047 µmol/kg/min and 5.755 µmol/kg/min and 5.519 µmol/kg/min and 3.299 µmol/kg/min and 5.985 µmol/kg/min and 2.316 µmol/kg/min | 22.6257 µmol/kg/min and 22.3444 µmol/kg/min and 14.5988 µmol/kg/min and 19.8177 µmol/kg/min and 18.6577 µmol/kg/min and 12.2721 µmol/kg/min and 17.7499 µmol/kg/min | 26.9483 µmol/kg/min and 45.2155 µmol/kg/min and 27.5078 µmol/kg/min and 38.7357 µmol/kg/min and 26.3505 µmol/kg/min and 28.6217 µmol/kg/min and 25.3709 µmol/kg/min |
| C[C@H](C(=O)O)[C@H](c1ccc2c(c1)O[C@H](C1CN(Cc3cc(C(F)(F)F)ccc3C(F)(F)F)C1)CC2)C1CC1 [L-846] | 162 mg/dL and 164 mg/dL and 165 mg/dL and 161 mg/dL and 182 mg/dL and 169 mg/dL and 204 mg/dL and 174 mg/dL and 186 mg/dL and 171 mg/dL | 98 mg/dl and 122 mg/dl and 115 mg/dl and 114 mg/dl and 99 mg/dl (2×) and 103 mg/dl and 104 mg/dl and 100 mg/dl and 85 mg/dl | 78 mg/dl and 96 mg/dl and 115 mg/dl and 110 mg/dl (2×) and 103 mg/dl and 108 mg/dl and 107 mg/dl and 101 mg/dl and 109 mg/dl | 101 mg/dL and 120 mg/dL and 118 mg/dL and 110 mg/dL and 107 mg/dL and 103 mg/dL and 114 mg/dL and 129 mg/dL and 102 mg/dL and 106 mg/dL | 112 mg/dl and 106 mg/dl and 113 mg/dl (3×) and 116 mg/dl and 101 mg/dl and 141 mg/dl and 132 mg/dl and 119 mg/dl | 104 and 110 and 84 and 100 and 96 and 87 and 101 and 99 and 103 | 61.0286 µmol/kg/min and 62.3968 µmol/kg/min and 60.5987 µmol/kg/min and 63.0498 µmol/kg/min and 58.2916 µmol/kg/min and 53.1262 µmol/kg/min and 50.1943 µmol/kg/min and 59.3349 µmol/kg/min | 5.2866 µmol/kg/min and 7.6637 µmol/kg/min and 4.613 µmol/kg/min and 10.7135 µmol/kg/min and 9.19 µmol/kg/min and 7.224 µmol/kg/min and 6.179 µmol/kg/min and 7.862 µmol/kg/min | 22.4627 µmol/kg/min and 29.4039 µmol/kg/min and 20.4093 µmol/kg/min and 17.187 µmol/kg/min and 19.1242 µmol/kg/min and 17.4656 µmol/kg/min and 16.9199 µmol/kg/min and 18.0022 µmol/kg/min | 33.2793 µmol/kg/min and 25.3292 µmol/kg/min and 35.5765 µmol/kg/min and 35.1493 µmol/kg/min and 29.9769 µmol/kg/min and 28.4363 µmol/kg/min and 27.0955 µmol/kg/min and 33.4708 µmol/kg/min |
